Legend:
[1] = system: tall mallow; assay: Test D tall mallow; assay type: in vivo, Malva sylvestris; settings: Preemergence, 0 to 100 scale
In short: (§1)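 Values are visual plant-response ratings (0 no injury, 100 complete control) recorded 14 to 21 days after herbicide treatment, using a non-phytotoxic solvent mixture containing surfactant. Preemergence applications went to the surface of pots holding freshly sown seed in sandy loam.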

[2] = system: Johnson grass; assay: Test D Johnson grass; assay type: in vivo, Sorghum halepense; settings: Preemergence, 0 to 100 scale
In short: as §1

[3] = system: winter barley; assay: Test E winter barley; assay type: in vivo, Hordeum vulgare; settings: Preemergence
[4] = system: sandbur; assay: Test D sandbur; assay type: in vivo, Cenchrus echinatus; settings: Preemergence, 0 to 100 scale
In short: as §1

[5] = system: Italian ryegrass; assay: Test E Italian ryegrass; assay type: in vivo, Lolium multiflorum; settings: Preemergence
[6] = system: surinam grass; assay: Test B pre/postemergence surinam grass; assay type: in vivo, Brachiaria decumbens
In short: (§2)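 Herbicidal effect was estimated by eye on a ten-point control scale after plants spent twelve to sixteen days in a greenhouse following soil or foliar treatment. Foliar sprays targeted plants at one to four leaves; all doses were formulated in a non-phytotoxic solvent with surfactant.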

[7] = system: Alexandergrass; assay: Test D Alexandergrass; assay type: in vivo, Brachiaria plantaginea; settings: Preemergence, 0 to 100 scale
In short: as §1

[8] = system: goosegrass; assay: Test D goosegrass; assay type: in vivo, Eleusine indica; settings: Preemergence, 0 to 100 scale
In short: as §1

[9] = system: green foxtail; assay: Test E green foxtail; assay type: in vivo, Setaria viridis; settings: Preemergence
[10] = system: crabgrass; assay: Test B pre/postemergence crabgrass; assay type: in vivo, Digitaria sanguinalis
In short: as §2

[11] = system: winter wheat; assay: Test E winter wheat; assay type: in vivo, Triticum aestivum; settings: Postemergence
In short: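 Postemergence: spray at 1–4 leaf stage, soil 60:40 sandy loam:potting mix; solvent + surfactant formulation; greenhouse 21–28 d; visual injury vs untreated controls.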

[12] = system: blackgrass; assay: Test E blackgrass; assay type: in vivo, Alopecurus myosuroides; settings: Preemergence
[13] = system: corn; assay: Test B pre/postemergence corn; assay type: in vivo, Zea mays
In short: as §2

[14] = system: winter wheat; assay: Test E winter wheat; assay type: in vivo, Triticum aestivum; settings: Preemergence
[15] = system: cocklebur; assay: Test B pre/postemergence cocklebur; assay type: in vivo, Xanthium strumarium
In short: as §2

[16] = system: wild oat; assay: Test E wild oat; assay type: in vivo, Avena fatua; settings: Preemergence, 0 to 100 scale where 0 is no effect and 100 is complete control
[17] = Rate 16 g/ha, 0 no injury, 100 complete control
[18] = Rate 32 g/ha, 0 no injury, 100 complete control
[19] = Rate 64 g/ha, 0 no injury, 100 complete control
[20] = Rate 125 g/ha, 0 no injury, 100 complete control
[21] = Rate 500 g/ha, 0 to 100 scale where 0 is no effect and 100 is complete control
[22] = Rate 1000 g/ha, 0 to 100 scale where 0 is no effect and 100 is complete control
[23] = Postemergence, Rate 62 g/ha, scale 0 to 10, 0 is no effect, 10 is complete control
[24] = Postemergence, Rate 250 g/ha, scale 0 to 10, 0 no effect, 10 complete control
[25] = Preemergence, Rate 31 g/ha, visual rating, scale 0 to 10 (0 no effect, 10 complete control)
[26] = Preemergence, Rate 62 g/ha, scale 0 to 10, 0 is no effect, 10 is complete control
[27] = Preemergence, Rate 125 g/ha, scale 0 to 10 (0 no effect, 10 complete control)
[28] = Preemergence, Rate 250 g/ha, scale of 0 to 10 where 0 is no effect and 10 is complete control
[29] = Rate 31 g/ha, Postemergence, scale 0 to 10
[30] = Rate 125 g/ha, Postemergence, scale 0 to 10, 0 no effect, 10 complete control

COc1ccccc1-n1c(=O)on(C(=O)N(c2ccc(F)cc2)C(C)C)c1=O [Compound 30]
Plant response rating, Tall Mallow [1, 17]: 0
Plant response rating, Tall Mallow [1, 18]: 0
Tall Mallow plant response rating [1, 19]: 0
Tall Mallow plant response rating [1, 20]: 0
Plant response rating, Tall Mallow ([1]; Rate 250 g/ha): 0
Plant response rating, Tall Mallow ([1]; Rate 500 g/ha): 0
Plant response rating, Johnsongrass [2, 17]: 0
Plant response rating, Johnsongrass [2, 18]: 0
Plant response rating, Johnsongrass [2, 19]: 0
Plant response rating, Johnsongrass [2, 20]: 0
Plant response rating, Johnsongrass ([2]; Rate 250 g/ha): 0
Plant response rating, Johnsongrass ([2]; Rate 500 g/ha): 40
Plant response rating, Barley (winter) ([3]; Rate 250 g/ha, 0 to 100 scale): 10
Plant response rating, Barley (winter) [3, 21]: 10
Plant response rating, Barley (winter) [3, 22]: 10
Plant response rating, Sandbur [4, 17]: 0
Plant response rating, Sandbur [4, 18]: 0
Sandbur plant response rating [4, 19]: 0
Sandbur plant response rating [4, 20]: 40
Plant response rating, Sandbur ([4]; Rate 250 g/ha): 40
Plant response rating, Sandbur ([4]; Rate 500 g/ha): 100
Plant response rating, I. Ryegrass ([5]; Rate 250 g/ha, 0 to 100 scale): 20
Plant response rating, I. Ryegrass [5, 21]: 40
Plant response rating, I. Ryegrass [5, 22]: 50
B. signalgrass plant response rating [6, 23]: 0
B. signalgrass plant response rating [6, 24]: 0
B. signalgrass plant response rating [6, 25]: 0
Plant response rating, B. signalgrass [6, 26]: 0
Plant response rating, B. signalgrass [6, 27]: 0
Plant response rating, B. signalgrass [6, 28]: 4
B. signalgrass plant response rating [6, 29]: 0
B. signalgrass plant response rating [6, 30]: 0
Plant response rating, Alexandergrass [7, 17]: 0
Plant response rating, Alexandergrass [7, 18]: 0
Plant response rating, Alexandergrass [7, 19]: 40
Plant response rating, Alexandergrass [7, 20]: 50
Plant response rating, Alexandergrass ([7]; Rate 250 g/ha): 80
Plant response rating, Alexandergrass ([7]; Rate 500 g/ha): 90
Plant response rating, Goosegrass [8, 17]: 30
Plant response rating, Goosegrass [8, 18]: 40
Plant response rating, Goosegrass [8, 19]: 70
Plant response rating, Goosegrass [8, 20]: 85
Plant response rating, Goosegrass ([8]; Rate 250 g/ha): 85
Plant response rating, Goosegrass ([8]; Rate 500 g/ha): 98
Plant response rating, Green foxtail ([9]; Rate 250 g/ha, 0 to 100 scale): 30
Plant response rating, Green foxtail [9, 21]: 60
Plant response rating, Green foxtail [9, 22]: 60
Crabgrass plant response rating [10, 23]: 1
Crabgrass plant response rating [10, 24]: 9
Crabgrass plant response rating [10, 25]: 2
Plant response rating, Crabgrass [10, 26]: 3
Plant response rating, Crabgrass [10, 27]: 9
Plant response rating, Crabgrass [10, 28]: 10
Crabgrass plant response rating [10, 29]: 0
Crabgrass plant response rating [10, 30]: 8
Plant response rating, Wheat (winter) ([11]; Rate 250 g/ha, 0 to 100 scale (0 no effect, 100 complete control)): 0
Plant response rating, Wheat (winter) ([11]; Rate 1000 g/ha, 0 to 100 scale, 0 is no effect and 100 is complete control): 0
Plant response rating, Wheat (winter) ([11]; Rate 500 g/ha, 0 to 100 scale, 0 no effect, 100 complete control): 0
Plant response rating, Blackgrass ([12]; Rate 250 g/ha, 0 to 100 scale): 30
Plant response rating, Blackgrass [12, 22]: 30
Corn plant response rating [13, 23]: 0
Corn plant response rating [13, 24]: 0
Corn plant response rating [13, 25]: 0
Plant response rating, Corn [13, 26]: 0
Plant response rating, Corn [13, 27]: 0
Plant response rating, Corn [13, 28]: 0
Corn plant response rating [13, 29]: 0
Corn plant response rating [13, 30]: 0
Plant response rating, Wheat (winter) ([14]; Rate 250 g/ha, 0 to 100 scale): 0
Plant response rating, Wheat (winter) [14, 21]: 0
Plant response rating, Wheat (winter) [14, 22]: 0
Cocklebur plant response rating [15, 23]: 0
Cocklebur plant response rating [15, 24]: 0
Cocklebur plant response rating [15, 25]: 0
Plant response rating, Cocklebur [15, 26]: 0
Plant response rating, Cocklebur [15, 27]: 0
Cocklebur plant response rating [15, 29]: 0
Cocklebur plant response rating [15, 30]: 0
Plant response rating, Wild oat ([16]; Rate 500 g/ha): 10
Plant response rating, Wild oat ([16]; Rate 1000 g/ha): 20

From US6737383B1, “Herbicidal oxadiazolidines” (priority 1999, dated 2004)
